Source: US20240116946A1 (Gilead Sciences, Inc., priority 2022, published 2024)
Where two headings read alike, the source gives them in different places.

Experiments:
[1] = target: recombinant SARS-CoV-2 Main protease (Mpro) (Severe acute respiratory syndrome coronavirus 2 (2019-nCoV) (SARS-CoV-2), UniProt P0DTD1); test: Cov Mpro Biochemical IC50 Assay; conditions: read-out: MPro IC50
SARS-CoV-2-NLuc = test: microbe, parasite or virus in culture; type: cell-based, SARS Coronavirus 2
[2] = recombinant SARS-CoV-2 Mpro 7.5 nM, fluorogenic peptide substrate 40 μM
[3] = recombinant SARS-CoV-2 Mpro, fluorogenic peptide substrate
[4] = Severe acute respiratory syndrome coronavirus, 48 h, read-out: MPro EC50

Structure (SMILES) | IC50 [1, 2] [nM] | EC50 (SARS-CoV-2-NLuc; read-out: MPro EC50) [nM] | IC50 [1, 3] [nM] | EC50 (SARS-CoV-2-NLuc; Severe acute respiratory syndrome coronavirus, 48 h; read-out: MPro EC50) [nM] | EC50 (SARS-CoV-2-NLuc; [4]) [nM]
COc1ccc(Cl)c(-c2cc3[nH]c(=O)n(-c4cncc5scc(C)c45)c(=O)c3s2)c1 (single isomer, unassigned) [Example 1053, 6-(2-chloro-5-methoxyphenyl)-3-(3-methylthieno[2,3-c]pyridin-4-yl)thieno[3,2-d]pyrimidine-2,4(1H,3H)-dione] | 83.3 | 48.5 |  |  | 
COc1cc(-c2cc3[nH]c(=O)n(-c4cncc5ccccc45)c(=O)c3cc2OC)c(Cl)cc1F (single isomer, unassigned) [Example 1054, 7-(2-chloro-4-fluoro-5-methoxyphenyl)-3-(isoquinolin-4-yl)-6-methoxyquinazoline-2,4(1H,3H)-dione] | 34.6 | 15.5 |  |  | 
COc1cc(-c2cc3[nH]c(=O)n(-c4cncc5ccccc45)c(=O)c3cc2OC)c(Cl)cc1F (single isomer, unassigned) [Example 1055, 7-(2-chloro-4-fluoro-5-methoxyphenyl)-3-(isoquinolin-4-yl)-6-methoxyquinazoline-2,4(1H,3H)-dione] | 459 | 460 |  |  | 
COc1cc(-c2cc3[nH]c(=O)n(-c4cncc5scc(C)c45)c(=O)c3s2)c(Cl)cc1F (single isomer, unassigned) [Example 1056, 6-(2-chloro-4-fluoro-5-methoxyphenyl)-3-(3-methylthieno[2,3-c]pyridin-4-yl)thieno[3,2-d]pyrimidine-2,4(1H,3H)-dione] | 2.34 | < 1.01 |  |  | 
COc1cc(-c2cc3[nH]c(=O)n(-c4cncc5scc(C)c45)c(=O)c3s2)c(Cl)cc1F (single isomer, unassigned) [Example 1057, 6-(2-chloro-4-fluoro-5-methoxyphenyl)-3-(3-methylthieno[2,3-c]pyridin-4-yl)thieno[3,2-d]pyrimidine-2,4(1H,3H)-dione] | 145 | 52.6 |  |  | 
COc1cc(-c2cc3c(s2)c(=O)n(-c2cncc4nnn(C)c24)c(=O)n3CCC#N)c(Cl)cc1F (single isomer, unassigned) [Example 1058, 3-(6-(2-chloro-4-fluoro-5-methoxyphenyl)-3-(1-methyl-1H-[1,2,3]triazolo[4,5-c]pyridin-7-yl)-2,4-dioxo-3,4-dihydrothieno[3,2-d]pyrimidin-1(2H)-yl)propanenitrile] | 2.86 | 5.15 |  |  | 
COc1cc(-c2cc3c(s2)c(=O)n(-c2cncc4nnn(C)c24)c(=O)n3CCC#N)c(Cl)cc1F (single isomer, unassigned) [Example 1059, 3-(6-(2-chloro-4-fluoro-5-methoxyphenyl)-3-(1-methyl-1H-[1,2,3]triazolo[4,5-c]pyridin-7-yl)-2,4-dioxo-3,4-dihydrothieno[3,2-d]pyrimidin-1(2H)-yl)propanenitrile] | 44.7 | 101 |  |  | 
Cn1ncc2cncc(-n3c(=O)c4sc(-c5cc(F)c(F)cc5Cl)cc4n(CCC#N)c3=O)c21 (single isomer, unassigned) [Example 1076, 3-[6-(2-chloro-4,5-difluoro-phenyl)-3-(1-methylpyrazolo[4,3-c]pyridin-7-yl)-2,4-dioxo-thieno[3,2-d]pyrimidin-1-yl]propanenitrile] | 3.64 | 10.9 |  |  | 
Cn1ncc2cncc(-n3c(=O)c4sc(-c5cc(F)c(F)cc5Cl)cc4n(CCC#N)c3=O)c21 (single isomer, unassigned) [Example 1077, 3-[6-(2-chloro-4,5-difluoro-phenyl)-3-(1-methylpyrazolo[4,3-c]pyridin-7-yl)-2,4-dioxo-thieno[3,2-d]pyrimidin-1-yl]propanenitrile] | 485 | > 1000 |  |  | 
COc1cnc(Cl)c(-c2cc3c(s2)c(=O)n(-c2cncc4ccccc24)c(=O)n3CCC#N)c1 (single isomer, unassigned) [Example 1088, 3-(6-(2-chloro-5-methoxypyridin-3-yl)-3-(isoquinolin-4-yl)-2,4-dioxo-3,4-dihydrothieno[3,2-d]pyrimidin-1(2H)-yl)propanenitrile] | 1.65 | 3.27 |  |  | 
COc1cnc(Cl)c(-c2cc3c(s2)c(=O)n(-c2cncc4ccccc24)c(=O)n3CCC#N)c1 (single isomer, unassigned) [Example 1089, 3-(6-(2-chloro-5-methoxypyridin-3-yl)-3-(isoquinolin-4-yl)-2,4-dioxo-3,4-dihydrothieno[3,2-d]pyrimidin-1(2H)-yl)propanenitrile] | > 1000 | > 1000 |  |  | 
COc1cnc(Cl)c(-c2cc3c(s2)c(=O)n(-c2cncc4cnn(C)c24)c(=O)n3CCC#N)c1 (single isomer, unassigned) [Example 1090, 3-(6-(2-chloro-5-methoxypyridin-3-yl)-3-(1-methyl-1H-pyrazolo[4,3-c]pyridin-7-yl)-2,4-dioxo-3,4-dihydrothieno[3,2-d]pyrimidin-1(2H)-yl)propanenitrile] | 1.5 | 5.22 |  |  | 
COc1cnc(Cl)c(-c2cc3c(s2)c(=O)n(-c2cncc4cnn(C)c24)c(=O)n3CCC#N)c1 (single isomer, unassigned) [Example 1091, 3-(6-(2-chloro-5-methoxypyridin-3-yl)-3-(1-methyl-1H-pyrazolo[4,3-c]pyridin-7-yl)-2,4-dioxo-3,4-dihydrothieno[3,2-d]pyrimidin-1(2H)-yl)propanenitrile] | 141 | 451 |  |  | 
COc1cnc(C#N)c(-c2cc3c(s2)c(=O)n(-c2cncc4ccccc24)c(=O)n3CCC#N)c1 (single isomer, unassigned) [Example 1092, 3-(1-(2-cyanoethyl)-3-(isoquinolin-4-yl)-2,4-dioxo-1,2,3,4-tetrahydrothieno[3,2-d]pyrimidin-6-yl)-5-methoxypicolinonitrile] | 5.1 | 11.2 |  |  | 
COc1cnc(C#N)c(-c2cc3c(s2)c(=O)n(-c2cncc4ccccc24)c(=O)n3CCC#N)c1 (single isomer, unassigned) [Example 1093, 3-(1-(2-cyanoethyl)-3-(isoquinolin-4-yl)-2,4-dioxo-1,2,3,4-tetrahydrothieno[3,2-d]pyrimidin-6-yl)-5-methoxypicolinonitrile] | 104 | 160 |  |  | 
COc1cnc(Cl)c(-c2cc3c(s2)c(=O)n(-c2cncc4cccc(F)c24)c(=O)n3CCC#N)c1 (single isomer, unassigned) [Example 1094, 3-(6-(2-chloro-5-methoxypyridin-3-yl)-3-(5-fluoroisoquinolin-4-yl)-2,4-dioxo-3,4-dihydrothieno[3,2-d]pyrimidin-1(2H)-yl)propanenitrile] | 3.27 | 9.71 |  |  | 
COc1cnc(Cl)c(-c2cc3c(s2)c(=O)n(-c2cncc4cccc(F)c24)c(=O)n3CCC#N)c1 (single isomer, unassigned) [Example 1095, 3-(6-(2-chloro-5-methoxypyridin-3-yl)-3-(5-fluoroisoquinolin-4-yl)-2,4-dioxo-3,4-dihydrothieno[3,2-d]pyrimidin-1(2H)-yl)propanenitrile] | 55.6 | 123 |  |  | 

Structure (SMILES) | IC50 [1, 2] [nM] | EC50 (SARS-CoV-2-NLuc; read-out: MPro EC50) [nM] | IC50 [1, 3] [nM] | EC50 (SARS-CoV-2-NLuc; Severe acute respiratory syndrome coronavirus, 48 h; read-out: MPro EC50) [nM] | EC50 (SARS-CoV-2-NLuc; [4]) [nM]
COc1cc(-c2cc3c(s2)c(=O)n(-c2cncc4ccncc24)c(=O)n3CCC#N)c(Cl)cc1F (single isomer, unassigned) [Example 1097, 3-[6-(2-chloro-4-fluoro-5-methoxy-phenyl)-3-(2,6-naphthyridin-4-yl)-2,4-dioxo-thieno[3,2-d]pyrimidin-1-yl]propanenitrile] | 42.5 | 33.2 |  |  | 
COc1cc(-c2cc3c(s2)c(=O)n(-c2cncc4ccncc24)c(=O)n3CCC#N)c(Cl)cc1F (single isomer, unassigned) [Example 1098, 3-[6-(2-chloro-4-fluoro-5-methoxy-phenyl)-3-(2,6-naphthyridin-4-yl)-2,4-dioxo-thieno[3,2-d]pyrimidin-1-yl]propanenitrile] | 3.81 | 1.91 |  |  | 
O=c1[nH]c2cc(-c3ccccc3Cl)sc2c(=O)n1-c1cncc2ccccc12 [Example 1, 6-(2-chlorophenyl)-3-(isoquinolin-4-yl)thieno[3,2-d]pyrimidine-2,4(1H,3H)-dione] |  |  | 10.8 | 28.9 | 
O=c1[nH]c2cc(-c3ccccc3)sc2c(=O)n1-c1cncc2ccccc12 [Example 2] |  |  | 267 |  | 2490
NC(=O)c1ccccc1-c1cc2[nH]c(=O)n(-c3cncc4ccccc34)c(=O)c2s1 [Example 3] |  |  | 312 |  | > 50000
O=c1c2sc(-c3ccccc3Cl)cc2n(CC2CCCC2)c(=O)n1-c1cncc2ccccc12 [Example 4] |  |  | 792 |  | 892
O=c1[nH]c2cc(-c3cccnc3)sc2c(=O)n1-c1cncc2ccccc12 [Example 5] |  |  | 342 |  | 1790
Cc1ccccc1-c1cc2[nH]c(=O)n(-c3cncc4ccccc34)c(=O)c2s1 [Example 7] |  |  | 24.7 |  | 109
O=c1[nH]c2cc(-c3c(O)cccc3Cl)sc2c(=O)n1-c1cncc2ccccc12 [Example 8] |  |  | 31.3 |  | 108
O=c1[nH]c2cc(-c3ccccc3F)sc2c(=O)n1-c1cncc2ccccc12 [Example 9] |  |  | 159 |  | 295
Cn1cc2ccc(-c3cc4[nH]c(=O)n(-c5cncc6ccccc56)c(=O)c4s3)cc2n1 [Example 10] |  |  | 13700 |  | 20000
Cc1cccc(-c2cc3[nH]c(=O)n(-c4cncc5ccccc45)c(=O)c3s2)c1Cl [Example 11] |  |  | 4820 |  | 638
Cc1c(Cl)cccc1-c1cc2[nH]c(=O)n(-c3cncc4ccccc34)c(=O)c2s1 [Example 12] |  |  | 7450 |  | 943
O=c1[nH]c2cc(-c3ccc(F)cc3Cl)sc2c(=O)n1-c1cncc2ccccc12 [Example 13] |  |  | 17.1 |  | 42.4
CC(C)Oc1cc(F)ccc1-c1cc2[nH]c(=O)n(-c3cncc4ccccc34)c(=O)c2s1 [Example 14] |  |  | 132 |  | 79.9
Cc1cc2ncnn2cc1-c1cc2[nH]c(=O)n(-c3cncc4ccccc34)c(=O)c2s1 [Example 15] |  |  | 3970 |  | 25100
